Measurements from patent US12006283B2, “HIF-1α inhibitor, preparation method therefor, and pharmaceutical composition for preventing or treating angiogenesis-associated eye disease, containing same as active ingredient” (SEOUL NATIONAL UNIVERSITY R&DB FOUNDATION, priority 2018, dated 2024).

Columns and labels:
[1] = molecular target: T1, HIF-1α (hypoxia-inducible factor 1α) (Homo sapiens, UniProt Q16665); assay: Evaluation of HIF-1α inhibitory activity (in vitro); assay type: cell-based; conditions: for IC50: HIF-1α inhibitory activity
T1 sequence (Q16665 whole entry, looked up): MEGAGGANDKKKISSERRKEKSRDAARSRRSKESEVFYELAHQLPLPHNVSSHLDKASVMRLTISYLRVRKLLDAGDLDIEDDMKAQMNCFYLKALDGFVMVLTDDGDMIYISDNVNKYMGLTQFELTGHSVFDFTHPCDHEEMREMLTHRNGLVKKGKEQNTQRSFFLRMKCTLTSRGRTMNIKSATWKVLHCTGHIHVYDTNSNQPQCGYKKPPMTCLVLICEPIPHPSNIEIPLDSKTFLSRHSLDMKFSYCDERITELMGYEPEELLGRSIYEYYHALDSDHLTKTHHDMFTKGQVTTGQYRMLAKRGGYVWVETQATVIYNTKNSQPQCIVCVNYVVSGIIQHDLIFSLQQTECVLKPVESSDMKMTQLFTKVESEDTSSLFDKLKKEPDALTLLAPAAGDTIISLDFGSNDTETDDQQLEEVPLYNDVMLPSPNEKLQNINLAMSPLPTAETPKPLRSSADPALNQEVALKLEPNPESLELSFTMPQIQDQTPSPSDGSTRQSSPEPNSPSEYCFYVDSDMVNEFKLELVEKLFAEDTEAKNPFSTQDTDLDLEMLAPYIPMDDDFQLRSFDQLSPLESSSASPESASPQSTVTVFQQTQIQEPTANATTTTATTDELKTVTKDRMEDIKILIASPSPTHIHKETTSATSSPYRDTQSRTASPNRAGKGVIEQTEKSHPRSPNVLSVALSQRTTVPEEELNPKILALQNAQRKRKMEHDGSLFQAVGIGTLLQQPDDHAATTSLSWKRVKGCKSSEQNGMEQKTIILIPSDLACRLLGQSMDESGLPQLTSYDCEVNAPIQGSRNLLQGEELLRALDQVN
Procedure: <Experimental Example 1> Evaluation of HIF-La Inhibitory Activity (In Vitro) The following experiment was performed in order to evaluate inhibitory activity against HIF-1α (hypoxia-inducible factor 1α) of the compound of Example according to an embodiment of the present invention.

[2] = system: retinal neovascularization by hypoxia; assay: Evaluation of inhibitory activity against retinal neovascularization by hypoxia; assay type: in vivo; conditions: FIG. 3; compared with Comparative Example 1
Procedure: <Experimental Example 4> Evaluation of Inhibitory Activity Against Retinal Neovascularization by Hypoxia
The following experiment was performed in order to evaluate inhibitory activity against retinal neovascularization by hypoxia of the compound of Example according to an embodiment of the present invention.
FIG. 3 is a graph showing the results of analysis of the inhibitory activity against retinal neovascularization by hypoxia of the compound of Example according to an embodiment of the present invention, wherein compound 2 is a compound of Comparative Example 1, and compound 34f is a compound of Example 10.

[3] = molecular target: T1, HIF-1α (hypoxia-inducible factor 1α); assay: Evaluation of HIF-1α regulatory activity (in vitro); assay type: cell-based; conditions: FIG. 2, compared with Comparative Example 1
Procedure: <Experimental Example 3> Evaluation of HIF-1α Regulatory Activity (In Vitro)
The following experiment was performed in order to evaluate regulatory activity of HIF-1α (hypoxia-inducible factor 1α) of the compound of Example according to an embodiment of the present invention.
FIG. 2 is a graph showing the results of analysis of the regulatory activity of HIF-1α (hypoxia-inducible factor 1α) of the compound of Example according to an embodiment of the present invention, wherein compound 2 is a compound of Comparative Example 1, and compound 34f is a compound of Example 10.

angiogenesis = assay: Evaluation of inhibitory activity against angiogenesis (in vitro); assay type: cell-based; conditions: FIG. 1, compared with Comparative Example 1
Procedure: <Experimental Example 2> Evaluation of Inhibitory Activity Against Angiogenesis (In Vitro)
The following experiment was performed in order to evaluate inhibitory activity against angiogenesis of the compound of Example according to an embodiment of the present invention.
FIG. 1 is a graph showing the results of analysis of inhibitory activity against angiogenesis of the compound of Example according to an embodiment of the present invention, wherein compound 2 is a compound of Comparative Example 1, and compound 34f is a compound of Example 10.

IC50 [1] [µM]	Molecule	further results
2.82	COc1ccc(C(C)C(=O)c2ccc(N3CCCC3)cc2OC)cc1OC (stereo not shown) [Example 6, 2-(3,4-dimethoxyphenyl)-1-(2-methoxy-4-(pyrrolidin-1-yl)phenyl)propan-1-one]	
> 15	COc1ccc(C(=O)C(C)c2ccc(OC)c(OC)c2)c(OC)c1 (stereo not shown) [Example 2, 1-(2,4-dimethoxyphenyl)-2-(3,4-dimethoxyphenyl)propan-1-one]	
> 15	COc1ccc(C(C)C(=O)c2ccc(N(C)C)cc2OC)cc1OC (stereo not shown) [Example 5, 2-(3,4-dimethoxyphenyl)-1-(4-(dimethylamino)-2-methoxyphenyl)propan-1-one]	
5.28	COc1cc(NCc2ccc(C#N)cc2)ccc1C(=O)C(C)c1ccccc1F (stereo not shown) [Example 16, 4-(((4-(2-(2-fluorophenyl)propanoyl)-3-methoxyphenyl)amino)methyl)benzonitrile]	
7.35	CC(C(=O)c1ccc(NCc2ccccc2)cc1)c1ccccc1F (stereo not shown) [Example 14, 1-(4-(benzylamino)phenyl)-2-(2-fluorophenyl)propan-1-one]	
2.59	COc1ccc(C(C)C(=O)c2ccc(OC3CCCCC3)cc2OC)cc1OC (stereo not shown) [Example 4, 1-(4-(cyclohexyloxy)-2-methoxyphenyl)-2-(3,4-dimethoxyphenyl)propan-1-one]	
6.52	COc1cc(N2CCCCC2)ccc1C(=O)C(C)c1ccccc1F (stereo not shown) [Example 15, 2-(2-fluorophenyl)-1-(2-methoxy-4-(piperidin-1-yl)phenyl)propan-1-one]	
6.85	COc1ccc(C(C)C(=O)c2ccc(N3CCOCC3)cc2)cc1OC (stereo not shown) [Example 12, 2-(3,4-dimethoxyphenyl)-1-(4-morpholinophenyl)propan-1-one]	
1.43	COc1ccc(C(C)C(=O)c2ccc(NCc3ccccc3)cc2OC)cc1OC (stereo not shown) [Example 9, 1-(4-(benzylamino)-2-methoxyphenyl)-2-(3,4-dimethoxyphenyl)propan-1-one]	
8.74	COc1ccc(C(C)C(=O)c2ccc(N3CCOCC3)cc2OC)cc1OC (stereo not shown) [Example 8, 2-(3,4-dimethoxyphenyl)-1-(2-methoxy-4-morpholinophenyl)propan-1-one]	
2.06	CC(C(=O)c1ccc(N2CCCCC2)cc1)c1ccccc1F (stereo not shown) [Example 13, 2-(2-fluorophenyl)-1-(4-(piperidin-1-yl)phenyl)propan-1-one]	
11.7	CCOc1ccc(C(=O)C(C)c2ccc(OC)c(OC)c2)c(OC)c1 (stereo not shown) [Example 3, 2-(3,4-dimethoxyphenyl)-1-(4-ethoxy-2-methoxyphenyl)propan-1-one]	
1.85	COc1ccc(C(C)C(=O)c2ccc(N3CCCCC3)cc2OC)cc1OC (stereo not shown) [Example 7, 2-(3,4-dimethoxyphenyl)-1-(2-methoxy-4-(piperidin-1-yl)phenyl)propan-1-one]	
0.6	COc1ccc(C(C)C(=O)c2ccc(NCc3ccc(C#N)cc3)cc2OC)cc1OC (stereo not shown) [Example 10]	inhibitory activity against retinal neovascularization by hypoxia [2]: better inhibitory activity against retinal neovascularization by hypoxia than that of the compound of Comparative Example 1; HIF-1α regulatory activity [3]: better HIF-1α regulatory activity than that of the compound of Comparative Example 1; inhibitory activity against HIF-1α (in words) ([1]; comment on Table 2): best inhibitory activity against HIF-1a; inhibitory activity against angiogenesis (angiogenesis): better inhibitory activity against angiogenesis than that of the compound of Comparative Example 1

Molecule	IC50 [1] [µM]	further results
2-(3,4-dimethoxyphenyl)-1-(4-(pyrrolidin-1-yl)phenyl)propan-1-one [Example 11]	2.61	
